# Reference: patent US20090233999A1, “COMPOSITIONS AND THERAPEUTIC METHODS INVOLVING ISOFLAVONES AND ANALOGUES THEREOF” (NOVOGEN RESEARCH PTY LTD, priority 1999, published 2009)
# System: HUVSMC
# Assay: Proliferation of human umbilical vein smooth muscle cells
# Type: cell-based
# Conditions: VSMC, 120 h, 5 days
# Procedure: Human umbilical vein smooth muscle cells (HUVSMC), tissue explants from a neonate (HRI— passage 2), were seeded into 96 well plates at 1×10^3 cells per well, and allowed to attach for 24 hours. They were then washed twice and incubated in medium without FBS for 24-48 hours to serum-starve them. Test compounds were prepared in medium without FBS and added to the plates and incubated for one hour. Medium with FBS was added to give a final concentration of 10% and the plates incubated for 5 days until the controls were just confluent. Final analogue concentration was therefore either a series from 150 μM to 1.2 μM, or single concentrations of 10 μM. The difference in absorbance between treated cells and untreated cells was calculated using the formula, test/control*100, to obtain the percentage change caused by the test compound. As well, an IC50 for each compound was calculated.
row,Compound,IC50 [µM]
1,"COc1ccc(C2=Cc3ccc(O)c(C)c3OC2)cc1OC [Cpd. 19, 7-Hydroxy-3′,4′-dimethoxy-8-methylisoflav-3-ene]",34
2,"COc1cccc(C2=Cc3ccc(O)cc3OC2)c1 [Cpd. 16, 7-Hydroxy-3′-methoxyisoflav-3-ene]",63
3,"Cc1c(O)ccc2c1OCC(c1cccc(O)c1)=C2 [Cpd. 14, 3′,7-Dihydroxy-8-methylisoflav-3-ene]",64
4,"Oc1ccc(C2=Cc3ccc(O)c(Br)c3OC2)cc1 [Cpd. 20, 4′,7-Dihydroxy-8-bromoisoflav-3-ene]",32
5,"Oc1ccc2c(c1)OCC(c1ccc(Br)cc1)=C2 [Cpd. 21, 4′-Bromo-7-hydroxyisoflav-3-ene]",8
6,"COc1ccc(C2=Cc3ccc(O)cc3OC2)cc1OC [Cpd. 18, 7-Hydroxy-3′,4′-dimethoxyisoflav-3-ene]",140

# System: not listed separately
# Assay: DPPH free radical scavenging
# Conditions: DPPH 0.1 mM, 20 minutes; read-out: Free radical scavenging ability EC50
# Procedure: The antioxidant (free radical trapping) activity of test compounds was assessed using the stable free radical compound 2,2-diphenyl-1-picrylhydrazyl (DPPH). A stock solution of DPPH was prepared at a concentration of 0.1 mM in ethanol and mixed for 10 minutes prior to use. Test compounds at a concentration of 100 μM were reacted with DPPH for 20 minutes, after which time the absorbance at 517 nm was determined and the change in absorbance compared to a reagent blank (DPPH with ethanol alone). A dose response curve was produced for those compounds with free radical scavenging activity (ΔAbs>0.3) at 100 μM. The IC50 value was estimated as the concentration of test compound that caused a 0.6 change in absorbance (with 1.2 absorbance units representing total scavenging of the DPPH radical).
row,Compound,EC50 [µM]
1,"COc1ccc(C2=Cc3ccc(O)c(C)c3OC2)cc1OC [Cpd. 19, 7-Hydroxy-3′,4′-dimethoxy-8-methylisoflav-3-ene]",74
2,"COc1cccc(C2=Cc3ccc(O)cc3OC2)c1 [Cpd. 16, 7-Hydroxy-3′-methoxyisoflav-3-ene]",45
3,"Cc1c(O)ccc2c1OCC(c1cccc(O)c1)=C2 [Cpd. 14, 3′,7-Dihydroxy-8-methylisoflav-3-ene]",47
4,"Oc1ccc(C2=Cc3ccc(O)c(Br)c3OC2)cc1 [Cpd. 20, 4′,7-Dihydroxy-8-bromoisoflav-3-ene]",24
5,"Oc1ccc2c(c1)OCC(c1ccc(Br)cc1)=C2 [Cpd. 21, 4′-Bromo-7-hydroxyisoflav-3-ene]",43
6,"COc1ccc(C2=Cc3ccc(O)cc3OC2)cc1OC [Cpd. 18, 7-Hydroxy-3′,4′-dimethoxyisoflav-3-ene]",48

# System: HCASMC
# Assay: Proliferation of human coronary artery smooth muscle cells
# Type: cell-based
# Conditions: VSMC, 120 h, five days, MTT
# Procedure: Human coronary smooth muscle cells (HCASMC—Clonetics) supplied at passage 3 and used for up to a further 12 population doublings, were seeded into 96 well plates at a low seeding rate, 2-5×10^3 cells per well and allowed to attach and proliferate to 30-40% confluence for 24-48 hours. Prior to inoculation the medium was changed to fresh growth medium. Test compounds were prepared in growth medium and added to plates so that the final concentrations were a series from 150 μM to 0.6 μM. The cells were incubated for five days, cell number assessed using MTT and an IC50 for each compound calculated.
row,Compound,IC50 [µM]
1,"COc1ccc(C2=Cc3ccc(O)c(C)c3OC2)cc1OC [Cpd. 19, 7-Hydroxy-3′,4′-dimethoxy-8-methylisoflav-3-ene]",63
2,"COc1cccc(C2=Cc3ccc(O)cc3OC2)c1 [Cpd. 16, 7-Hydroxy-3′-methoxyisoflav-3-ene]",118
3,"Cc1c(O)ccc2c1OCC(c1cccc(O)c1)=C2 [Cpd. 14, 3′,7-Dihydroxy-8-methylisoflav-3-ene]",54
4,"Oc1ccc(C2=Cc3ccc(O)c(Br)c3OC2)cc1 [Cpd. 20, 4′,7-Dihydroxy-8-bromoisoflav-3-ene]",27
5,"Oc1ccc2c(c1)OCC(c1ccc(Br)cc1)=C2 [Cpd. 21, 4′-Bromo-7-hydroxyisoflav-3-ene]",29
6,"COc1ccc(C2=Cc3ccc(O)cc3OC2)cc1OC [Cpd. 18, 7-Hydroxy-3′,4′-dimethoxyisoflav-3-ene]",88

# System: red blood cells
# Assay: Peroxyl radical (AAPH)-induced red blood cell lysis
# Type: cell-based
# Conditions: 10 μM; AAPH-induced RBC lysis; vehicle 40.0
# Procedure: Freshly collected heparinised venous blood (10 ml, on ice) was aliquotted into 1.8 ml sterile eppendorf tubes and centrifuged for 10 minutes at 2600 rpm at 4° C. Plasma and buffy coat layers were removed (approximately 900 μl) and packed red blood cells (RBC) were then washed by the addition of 900 μl of sterile, ice cold PBS. This washing procedure was repeated twice. Packed RBC were resuspended by the addition of 900 μl of ice-cold, sterile PBS (and termed RBC stock). RBC stocks were stored at 4° C. for a maximum of three days. All working suspensions of RBC were prepared fresh daily by diluting 200 μl of RBC stock into 10 ml of ice-cold, sterile PBS and 50 μl added to each well.
# The free radical generator AAPH (1.22 gm) was dissolved in 7.5 ml of PBS to yield a 4× stock at 600 mM and 50 μl aliquots (final concentration of 150 mM) were then added to each well to initiate the lysis assay. Test compounds were examined at […] (in DMSO 0.25%). Appropriate controls were included in each experiment. Peroxyl-induced RBC lysis assays were performed in 96-flat bottom well microtitre plates with a total volume of 200 μl per well. Turbidity of RBC suspensions were monitored using a Tecan microplate reader at 690 nm (37° C.) with gentle vortexing. Assays were performed in quadruplicate and readings were taken every 5 minutes over 5 hours. RBC lysis curves were constructed by plotting absorbance (mean of 4 readings) against time. Time to half-lysis was calculated by taking the highest absorbance reading (no lysis) and the lowest absorbance reading (maximum lysis). The sum of these two readings divided by two gave the absorbance at half-lysis. Simple regression analysis was used to calculate the time at which half-lysis absorbance occurred.
row,Compound,Time taken to reach half-lysis [min]
1,"COc1ccc(C2=Cc3ccc(O)c(C)c3OC2)cc1OC [Cpd. 19, 7-Hydroxy-3′,4′-dimethoxy-8-methylisoflav-3-ene]",111.6
2,"COc1cccc(C2=Cc3ccc(O)cc3OC2)c1 [Cpd. 16, 7-Hydroxy-3′-methoxyisoflav-3-ene]",164.3
3,"Cc1c(O)ccc2c1OCC(c1cccc(O)c1)=C2 [Cpd. 14, 3′,7-Dihydroxy-8-methylisoflav-3-ene]",134.7
4,"Oc1ccc(C2=Cc3ccc(O)c(Br)c3OC2)cc1 [Cpd. 20, 4′,7-Dihydroxy-8-bromoisoflav-3-ene]",122.0
5,"Oc1ccc2c(c1)OCC(c1ccc(Br)cc1)=C2 [Cpd. 21, 4′-Bromo-7-hydroxyisoflav-3-ene]",140.8
6,"COc1ccc(C2=Cc3ccc(O)cc3OC2)cc1OC [Cpd. 18, 7-Hydroxy-3′,4′-dimethoxyisoflav-3-ene]",107.7

# System: BALB/c mice (AA-induced ear swelling)
# Assay: Murine ear inflammation assay, AA-induced ear swelling
# Type: in vivo, mouse
# Conditions: 25 mg/kg i/p
# Procedure: (§1) Female BALB/c mice (ARC, WA, Australia), weighing 15-21 g, and maintained on an isoflavone-free diet (Gordon's Specialty Stock Foods, Yanderra, NSW) for at least seven days, were randomised into test groups of five or six. To reduce animal use, mice had ear swelling induced by applying AA (Sigma, Steinheim, Germany) initially, and then by phorbol 12-Myristate 13-acetate (PMA—Sigma, Mo., USA) one week later.
# (§2) Test compounds were dissolved in polyethylene glycol (PEG) 400 (Sigma, St. Louis, Mo., USA):phosphate buffered saline 1:1 and injected intraperitoneally (i/p) at a dose of 25 mg/kg either 30 min prior to AA treatment or 1 hr prior to PMA treatment. Mice were anaesthetised using isoflurane (Veterinary Companies of Australia Pty Ltd, NSW, Australia) and baseline thickness of both ears was measured using a spring micrometer (Interapid, Zurich, Switzerland). Each mouse received a total of 20 μL of either AA in ethanol (50 mg/ml) or PMA in acetone (0.2 mg/ml) applied to the inner and outer surfaces of each pinna (i.e. 5 μL per ear surface). Mice were anaesthetised again to remeasure the ears at 1 hr post-AA application or at 5 hr post-PMA application.
# (§3) The difference in ear swelling pre- and post-application of inflammogen for each ear was calculated. The difference in mean swelling of each test group compared to the group given vehicle alone was calculated using a two-tailed unpaired t-test (Prism 4, Graphpad Software).
row,Compound,ear oedema caused by the application of AA
1,"COc1ccc(C2=Cc3ccc(O)c(C)c3OC2)cc1OC [Cpd. 19, 7-Hydroxy-3′,4′-dimethoxy-8-methylisoflav-3-ene]",significant reduction
2,"COc1cccc(C2=Cc3ccc(O)cc3OC2)c1 [Cpd. 16, 7-Hydroxy-3′-methoxyisoflav-3-ene]",significant reduction
3,"Cc1c(O)ccc2c1OCC(c1cccc(O)c1)=C2 [Cpd. 14, 3′,7-Dihydroxy-8-methylisoflav-3-ene]",significant reduction
4,"COc1ccc(C2=Cc3ccc(O)cc3OC2)cc1OC [Cpd. 18, 7-Hydroxy-3′,4′-dimethoxyisoflav-3-ene]",significant reduction

# Same assay, conditions: AA; 25 mg/kg i/p; 1 hr post-AA
Compound,% Change compared with vehicle [%],"Change in ear thickness (mean ± SD, ×0.01 mm) [×0.01 mm]"
"COc1ccc(C2=Cc3ccc(O)c(C)c3OC2)cc1OC [Cpd. 19, 7-Hydroxy-3′,4′-dimethoxy-8-methylisoflav-3-ene]",−34,9.3 ± 3.9
"COc1cccc(C2=Cc3ccc(O)cc3OC2)c1 [Cpd. 16, 7-Hydroxy-3′-methoxyisoflav-3-ene]",−29,11.6 ± 2.9
"Cc1c(O)ccc2c1OCC(c1cccc(O)c1)=C2 [Cpd. 14, 3′,7-Dihydroxy-8-methylisoflav-3-ene]",−34,10.7 ± 2.9
"Oc1ccc(C2=Cc3ccc(O)c(Br)c3OC2)cc1 [Cpd. 20, 4′,7-Dihydroxy-8-bromoisoflav-3-ene]",−11,14.4 ± 6.1
"Oc1ccc2c(c1)OCC(c1ccc(Br)cc1)=C2 [Cpd. 21, 4′-Bromo-7-hydroxyisoflav-3-ene]",−11,14.4 ± 5.1
"COc1ccc(C2=Cc3ccc(O)cc3OC2)cc1OC [Cpd. 18, 7-Hydroxy-3′,4′-dimethoxyisoflav-3-ene]",−40,8.4 ± 3.7

# System: BALB/c mice (PMA-induced ear swelling)
# Assay: Murine ear inflammation assay, PMA-induced ear swelling
# Type: in vivo, mouse
# Conditions: 25 mg/kg i/p
# Procedure: as §1, §2, §3
row,Compound,inflammation caused by the application of PMA
1,"COc1ccc(C2=Cc3ccc(O)c(C)c3OC2)cc1OC [Cpd. 19, 7-Hydroxy-3′,4′-dimethoxy-8-methylisoflav-3-ene]",significantly inhibited

# Same assay, conditions: PMA; 25 mg/kg i/p; 5 hr post-PMA
Compound,% Change compared with vehicle,"Change in ear thickness (mean ± SD, ×0.01 mm) [×0.01 mm]"
"COc1ccc(C2=Cc3ccc(O)c(C)c3OC2)cc1OC [Cpd. 19, 7-Hydroxy-3′,4′-dimethoxy-8-methylisoflav-3-ene]",−26%,22.1 ± 3.9
"COc1cccc(C2=Cc3ccc(O)cc3OC2)c1 [Cpd. 16, 7-Hydroxy-3′-methoxyisoflav-3-ene]",−11%,23.3 ± 4.5
"Cc1c(O)ccc2c1OCC(c1cccc(O)c1)=C2 [Cpd. 14, 3′,7-Dihydroxy-8-methylisoflav-3-ene]",+7%,27.9 ± 3.8
"Oc1ccc(C2=Cc3ccc(O)c(Br)c3OC2)cc1 [Cpd. 20, 4′,7-Dihydroxy-8-bromoisoflav-3-ene]",+4%,22.7 ± 4.7
"Oc1ccc2c(c1)OCC(c1ccc(Br)cc1)=C2 [Cpd. 21, 4′-Bromo-7-hydroxyisoflav-3-ene]",+24%,27.2 ± 8.6
"COc1ccc(C2=Cc3ccc(O)cc3OC2)cc1OC [Cpd. 18, 7-Hydroxy-3′,4′-dimethoxyisoflav-3-ene]",−1%,29.6 ± 2.7
